# Assay results published in US12440493B2, “Combination therapy for treating cancer comprising substituted piperazines” (Eli Lilly and Company, priority 2020, dated 2025).
# Where “and” joins values, the source holds several entries; their conditions need not be identical. Equal values may be shown once.
# Key:
# [1] = tested on: IDH1(R132H) primary human AML cells; test: Bone marrow AML clearance (flow cytometry), human AML PDx models in NSG mice; format: in vivo; settings: for Bone Marrow AML Clearance: % hCD33 + hCD45+ (% of white cells) / Bone Marrow AML Clearance: % hCD45+ (% of white cells): QD, PO, each line one animal
# Experimental: Compounds and Formulation. For in vivo studies, each test article is prepared at an appropriate concentration with vehicle. […] Compound A is prepared fresh at the appropriate concentrations with vehicle every 7 days and stored at 4° C. between doses. […] Cytarabine is prepared fresh weekly by dilution with sterile saline from stock solution of Cytarabine (injection 20 mg/mL, (Pfizer injectables')). Azacitidine (Sigma, Lot #MKBR7212) is formulated in sterile water and is prepared fresh daily immediately before dosing. In vivo human AML PDx models. […] Two models are used in the studies: […] As needed, splenocytes from tumor-bearing mice are used to propagate and expand the models, as described. Each test article is prepared as described above at an appropriate concentration with vehicle to give animals the doses tested in this study at a dosing volume of 10 μL/gram body weight. Mice receiving Compound A (PO, QD) are treated at the indicated doses for the duration of the study. The combination agents are dosed as follows: […] Treated mice are assessed in comparison to vehicle treated and naïve (non-tumor bearing) control mice. Body weight is recorded twice per week. […] AML PDx model propagation. […] Spleens are processed and splenocytes isolated as described below. Two hundred μL per subject of the splenocyte prep is injected IV (intravenous, tail vein) into recipient NSG mice. […] Once engraftment is confirmed, the mice are monitored biweekly until ready to be put on study. […] Submandibular blood is collected. Spleen/Splenocyte Processing and Prep. After excision, a spleen is weighed, and […] is placed in a standard sterile 15 mL polypropylene conical tube containing PBS, and placed on ice. […] The spleen is placed in ice cold sterile PBS in a 15 mL collection tube. The spleen is removed from the collection tube and placed in a 100 micron 50 mL conical tube cell strainer (BD Falcon #352360). The spleen is processed by gentle rubbing of the spleen tissue against the surface of the cell strainer with the end of a 5 mL syringe plunger in a circular motion. The surface of the strainer is rinsed with 10 mL room temperature sterile DPBS (HyClone SH30028) 3 times during the process. […] The cell pellet is collected by centrifugation (300×g) and washed three times with 30 mL sterile DPBS. The cells are counted and resuspended in DPBS at the desired implant concentration. Bone Marrow Collection. […] Flow cytometry analysis of human white cells. Submandibular blood samples from in vivo studies are collected. Fluor-conjugated antibody stains are added according to the manufacturer's instructions (anti-human CD33-PE (clone WM53, BD Cat #555450), anti-human CD14-APC (clone MφpP9, BD Cat #340436), anti-human CD15-V450 (clone HI98, BD Cat #561584), anti-human CD117-BV421 (clone YB5.B8, BD Cat #562434), anti-human […]7 (clone ICRF44, BD Cat #557754), anti-human […]7 (clone HI30, BD Cat #557748), and anti-human CD3-FITC (clone SK7, BD Cat #340542)). The samples are incubated for 30 minutes at room temperature, protected from light. After the incubation, 1.5 mL 1×BD Lyse/Fix (37° C., (BD #558049)) is added to each sample and incubated for 12 minutes at room temperature. The tubes are centrifuged at 300×g for 7 minutes. BD Lyse/Fix solution is aspirated and the cell pellet washed with stain/wash buffer 3 times (1 wash step consisted of: pellet resuspended in 3 mL stain/wash buffer, centrifuged at 300×g, aspirated wash). Fixed cells are then resuspended in 300 to 400 μL stain/wash buffer. Samples are analyzed on a Becton Dickinson FACSVerse Flow cytometer (Cat #651155 Serial #Z6511550447) using standard flow cytometry principles and techniques. Samples are analyzed on the same day as they are stained and fixed. Population gating and data analysis of percent population are performed in the FACSuite software on the FACSVerse cytometer. Percent population values from the data analysis are plotted in Graphpad Prism or in JMP13. […]
# 2-HG production = test: Plasma 2-HG inhibition (LC-MS metabolite analysis in plasma of AML PDx model); format: in vivo, human; settings: for % plasma 2-HG (treatment group value): vehicle 100%
# [2] = 3.3 mg/kg Compound A, QD, PO, Table 1D, each line one animal
# [3] = 3.3 mg/kg Compound A, QD, PO, Table 2D, each line one animal
# [4] = plasma, B: 1 mg/kg Compound A, QD, PO, one line per animal
# [5] = plasma, C: 10 mg/kg Compound A, one line per animal
smiles,measurement,setting,value
"C=CC(=O)N1CCN([C@@H](CC2CC2)c2ccc([C@H](C)Nc3ncc4c(n3)N(CC)C(=O)OC4)cc2)CC1 [Compound A, 7-[[(1S)-1-[4-[(1S)-2-cyclopropyl-1-(4-prop-2-enoylpiperazin-1-yl)ethyl]phenyl]ethyl]amino]-1-ethyl-4H-pyrimido[4,5-d][1,3]oxazin-2-one]",Bone Marrow AML Clearance: % hCD33 + hCD45+ (% of white cells),[1]; 1 mg/kg Compound A,87.74% and 92.23%
same,Bone Marrow AML Clearance: % hCD45+ (% of white cells),[1]; 1 mg/kg Compound A,88.34% and 92.36%
same,Bone Marrow AML Clearance: % hCD33 + hCD45+ (% of white cells),"[1]; 3.3 mg/kg Compound A, Table 1C",98.6% and 44.3% and 98.54% and 86.55%
same,Bone Marrow AML Clearance: % hCD45+ (% of white cells),"[1]; 3.3 mg/kg Compound A, Table 1C",98.36% and 43.99% and 98.15% and 86.21%
same,Bone Marrow AML Clearance: % hCD33 + hCD45+ (% of white cells),"[1]; 3.3 mg/kg Compound A, Table 2C",72.73% and 84.3% and 99.41% and 91.97%
same,Bone Marrow AML Clearance: % hCD45+ (% of white cells),"[1]; 3.3 mg/kg Compound A, Table 2C",72.6% and 84.16% and 99.3% and 91.11%
same,Bone Marrow AML Clearance: % hCD33 + hCD45+ (% of white cells),[1]; 10 mg/kg Compound A,8.65% and 4.27% and 1.09% and 0.78% and 1.84%
same,Bone Marrow AML Clearance: % hCD45+ (% of white cells),[1]; 10 mg/kg Compound A,8.66% and 4.28% and 1.11% and 0.78% and 1.85%
same,% human AML cells in bone marrow (of white cells; lower = more clearance),"[1]; group B: 1 mg Compound A, vehicle 86%",90%
same,% human AML cells in bone marrow (of white cells; lower = more clearance),"[1]; group B: Compound A (3.3 mg/kg), azacitidine study, vehicle 94%",87%
same,% human AML cells in bone marrow (of white cells; lower = more clearance),"[1]; group B: Compound A (3.3 mg/kg), cytarabine study, vehicle 94%",78%
same,% human AML cells in bone marrow (of white cells; lower = more clearance),"[1]; group C: 10 mg Compound A, vehicle 86%",2.3%
same,% Inhibition of 2-HG (plasma),2-HG production; [2],92.715% and 97.316% and 100.207% and 99.855% and 92.797% and 94.779%
same,Naive Subtracted 2-HG (plasma),2-HG production; [2],0.134 µM and 0.809 µM and 0.298 µM and -0.023 µM and 0.016 µM and 0.799 µM and 0.579 µM
same,Plasma 2-HG,2-HG production; [2],1.042 µM and 1.717 µM and 1.206 µM and 0.885 µM and 0.924 µM and 1.708 µM and 1.488 µM
same,% Inhibition of 2-HG (plasma),2-HG production; [3],118.011% and 98.032% and 112.937% and 127.909% and 122.77% and 118.689% and 111.758%
same,Naive Subtracted 2-HG (plasma),2-HG production; [3],-1.236 µM and 0.135 µM and -0.888 µM and -1.915 µM and -1.562 µM and -1.282 µM and -0.807 µM
same,Plasma 2-HG,2-HG production; [3],1.701 µM and 3.072 µM and 2.049 µM and 1.022 µM and 1.374 µM and 1.654 µM and 2.13 µM
same,inhibition at 10 mg/kg,"2-HG production; NSG mice, plasma, C: 10 mg/kg Compound A, one line per animal",84%
same,inhibition at 3.3 mg/kg,"2-HG production; NSG mice, po, 3.3 mg/kg Compound A, QD, Table 1D, each line one animal",98.8%
same,inhibition at 1 mg/kg,"2-HG production; NSG mice, po, plasma, B: 1 mg/kg Compound A, QD, PO, one line per animal",54.7%
same,% plasma 2-HG (treatment group value),2-HG production; group B: 1 mg Compound A,38%
same,% plasma 2-HG (treatment group value),"2-HG production; group B: Compound A (3.3 mg/kg), azacitidine study",−15%
same,% plasma 2-HG (treatment group value),"2-HG production; group B: Compound A (3.3 mg/kg), cytarabine study",3.4%
same,% plasma 2-HG (treatment group value),2-HG production; group C: 10 mg Compound A,9.2%
same,2-HG,2-HG production; [4],9.264 µM and 6.489 µM and 7.318 µM and 8.683 µM and 8.938 µM
same,% Inhibition of 2-HG,2-HG production; [4],73.015% and 67.532% and 58.504% and 56.818%
same,Naive Subtracted 2-HG,2-HG production; [4],6.855 µM and 4.08 µM and 4.909 µM and 6.274 µM and 6.529 µM
same,2-HG,2-HG production; [5],4.821 µM and 4.395 µM and 4.286 µM and 3.033 µM and 2.863 µM
same,% Inhibition of 2-HG,2-HG production; [5],86.867% and 87.584% and 95.874% and 97%
same,Naive Subtracted 2-HG,2-HG production; [5],2.412 µM and 1.986 µM and 1.877 µM and 0.624 µM and 0.454 µM
